US7947312B2, “Method of preparation and composition of a water soluble extract of the bioactive component of the plant species Uncaria for enhancing immune, anti-inflammatory, anti-tumor and DNA repair processes of warm blooded animals” (priority 2002, dated 2011)
Read-outs that look alike come from different tables or passages of the source.

Experiments:
[1] = system: NF-κB dependent Igκ-chain expression in 70Z/3 cells; assay: LPS-induced Igκ-chain expression in 70Z/3 cells (flow cytometry, 7AAD); assay type: cell-based
Procedure: FIG. 5B illustrates 70Z/3 cells (2×10^5) that were pretreated for 4 h with C-MED-100® or QA before activation for 20 h with LPS (25 μg/ml). The cells were thereafter stained with 7AAD and Igκ-antibodies and analyzed by flow cytometry. The results are mean Igκ-positive cells±S.D. (left panel) and mean 7AAD negative cells±S.D. (right panel) of duplicate cultures from one representative experiment out of two performed.
Cell cultures: Raji human Burkitt's lymphoma (CCL-86), Jurkat human acute T-cell leukemia (TIB-152), 70Z/3 mouse pre-B lymphocyte cell line (TIB-158), or mouse spleen cells were used in the experiments. The cells were cultured in RPMI medium (Life Technologies) supplemented with 10% FCS, 10 mM HEPES buffer, antibiotics, 50 μM 2-mercaptoethanol and 1 mM sodium pyruvate (all supplements from Life Technologies) at 37° C., 5% CO2. The number of Raji cells in duplicate cultures were determined with a Coulter Z1 cell counter (Beckman Coulter Inc, Fullerton, Calif., USA) three times each. The number of viable and dead cells were determined using trypan blue exclusion, by counting three independent samples from duplicate cultures. […] Proliferation was detected by measuring thymidine incorporation after a 4 hours pulse with 1 μCi ^3[H]-thymidine (Amersham Pharmacia).

IκBα = assay: Western blotting of IκBα and phosphorylated IκBα in LPS-stimulated 70Z/3 cells; assay type: cell-based, mouse; conditions: QA 2 mg/ml or PDTC 100 μM
Procedure: FIGS. 5C and 5D illustrate 70Z/3 cells (5×10^6) that were pre-treated with QA (2 mg/ml) or with PDTC (100 μM) as a positive control for two hours and thereafter stimulated with LPS (25 μg/ml) for the indicated time. Cytoplasmic extracts equalized for protein concentration were analyzed by western blotting using IκBα-specific antibodies. One representative experiment out of three (FIG. 5C) and one representative experiment out of two (FIG. 5D) are presented.
Preparation of cell extracts: The 70Z/3 cells were pretreated with QA (1 or 2 mg/ml) or with PDTC for 2 hours before they were stimulated with LPS for various time points. Whole cell extracts from the 70Z/3 cells (1×10^6) were prepared for analysis of the NF-κB signaling pathway. The cells were washed twice in PBS, resuspended in lysis buffer (75 mM Tris-HCl (pH 8.0), 100 mM NaCl, 5 mM KCl, 3 mM MgCl2, 2% NP-40, 1 mM PMSF and a protease inhibitor cocktail) (Roche Diagnostics Scandinavia AB) and incubated on ice for 10 min. The cell debris was pelleted and the supernatants were stored at −70° C. until Western Blot was performed.
Western blotting: Cellular extracts from 70Z/3 cells were separated on a 10% SDS polyacrylamide gel and the proteins were transferred to a nylon membrane. After blocking overnight in 5% dry fat-free milk in TBST, the membrane was incubated for 2 hrs with primary antibodies specific either to IκBα or to phosphorylated IκBα (both from Cell Signaling Technology Inc, Beverly, Mass.). The membranes were thereafter washed three times in TBST, and incubated with HRP-conjugated goat anti-rabbit antibodies (Amersham Pharmacia). The membranes were washed three times and chemoluminescence was detected using the ECL-reagent (Amersham Pharmacia) and x-ray film (CEA AB, Strängnäs, Sweden).

HL-60 W6899 cells = assay: HL-60 bioassay, microculture 5 days, clonogenicity estimated by MTT assay (Table 1); assay type: cell-based, human; conditions: Homo sapiens, HL-60, parameters are approximations
Procedure: An assay of biological activity of C-MED-100®'s active ingredient is prepared as follows: HL-60 […] cells are exposed in microculture at 5000 cells per well (96-well plates) for 5 days at 37 ? C. in a CO2 incubator. After incubation, the cells are washed with saline and clonogenicity estimated by MTT assay.

C57BL/6 mice = assay: Mice treated via drinking water for 21 days: spleen cells, blood cells, weights; assay type: in vivo, mouse
Procedure: Mice were treated with indicated concentrations of QA or C-MED-100® in the drinking water for 21 days, sacrificed and absolute number of spleen cells counted using trypan blue exclusion. The presented data are mean cell numbers±S.D. pooled from five experiments (water, n=21; C-MED-100® 4 mg/ml, n=24; C-MED-100® 8 mg/ml, n=9; QA 1 mg/ml, n=9; QA 2 mg/ml, n=22; QA 4 mg/ml, n=10). Statistically significant differences compared to control mice supplemented with tap water are indicated. […] The data are presented as the mean number of cells/ml±S.D. from five experiments (water, n=21; C-MED-100® 4 mg/ml, n=24; C-MED-100® 8 mg/ml, n=9; QA 1 mg/ml, n=9; QA 2 mg/ml, n=22; QA 4 mg/ml, n=10). Statistically significant differences compared to control mice supplemented with tap water are indicated. Materials and Methods: C57BL/6 females were bought from […], Denmark and used in experiments at an age of 6-10 weeks. The animals were kept in a SPF facility at Lund University, Lund, Sweden. The use of laboratory animals complies with the guidelines of the European Community and was approved of by the local ethical committee. In vivo treatment: Mice were fed with C-MED-100® and QA (Sigma-Aldrich), dissolved in autoclaved tap water at indicated concentrations, for 21 days. The drinking water bottles were changed every third day. The animals were then sacrificed, the spleens removed and blood samples collected. The blood samples were analyzed in a Sysmex KX-21N cytometer (Sysmex Corporation, Kobe, Japan).

O=C(O)C1(O)CC(O)C(O)C(O)C1 (centres unmarked) [QA, 1,3,4,5-tetrahydroxy-cyclohexanecarboxylic acid]
cell death in 70Z/3 cells (7AAD) [1]: without causing cell death | LPS-induced Igκ-chain expression ([1]; 70Z/3 cells, 4 h pretreatment, LPS 25 μg/ml 20 h): inhibited Igκ-chain expression to a similar extent | phosphorylation of IκBα (IκBα): did not affect the phosphorylation of IκBα | LPS-induced breakdown of IκBα (IκBα; 2 h pretreatment): inhibited the LPS-induced breakdown of IκBα | IC50 (HL-60 W6899 cells; after 1% aqueous ammonia, read-out: Bioassay after 1% aqueous ammonia IC50 HL-60 cells): > 3000 µg/mL | IC50 (HL-60 W6899 cells; read-out: Bioassay efficacy using IC50 in HL-60 cells): > 3000 µg/mL | number of spleen cells (C57BL/6 mice; 2 mg/ml in drinking water, 21 days): significantly increased number of spleen cells | body weight (C57BL/6 mice; 4 mg/ml in drinking water): significantly reduced | WBC and blood lymphocytes in peripheral blood (C57BL/6 mice; 4 mg/ml in drinking water, vs normal control animals): this increase was significant | absolute numbers of lymphocyte subsets CD4+ T cells, CD8+ T cells and B cells in spleen (C57BL/6 mice; drinking water 21 days (FIG. 6B)): this was also the case | WBC, blood lymphocytes, RBC in peripheral blood (C57BL/6 mice; drinking water 21 days, indicated concentrations): increasing number of WBC and blood lymphocytes
